Key:
[1] = tested on: D-[Aba^67.95 (CO-S)^51–52]2 HIV-1 PR; test: Fluorogenic assay of inhibitors against the D-ligation analog; format: biochemical; conditions: corresponding chiral substrate, 5×1C50 concentration of inhibitor
Procedure: (§1) The D- and L-enzymes were separately assayed by the fluorogenic assay method using the corresponding chiral substrate, in the presence of 5×1C50 concentration of inhibitor. The fluorogenic assays were performed with 15 ul aliquots (corresponding to […] protein) of each enzyme enantiomer in 100 millimolar MES buffer pH 6.5 added to a solution of […] D- or L-fluorogenic substrate in the MES buffer. The substrate sequence was 2-aminobenzoyl-Thr-Ile-Nle-Phe(p-NO2)-Gln-Arg amide (SEQ ID NO 2): it was synthesized with either D- or L-amino acid derivatives to provide the appropriate enantiomeric forms. The inhibitor Evans Blue is a non-peptide, achiral mixed competitive-uncompetitive inhibitor of the HIV-1 PR enzyme.

[2] = target: T1, L-[Aba^67.95 (CO-S)^51–52]2 HIV-1 PR (Human immunodeficiency virus type 1 group M subtype B, UniProt P03369, C557A/C585A); test: Fluorogenic assay of inhibitors against the L-ligation analog; format: biochemical; conditions: corresponding chiral substrate, 5×1C50 concentration of inhibitor
T1 construct: to form the ligated 99-residue D- and L-[(NHCH2COSCH2 CO)^51-52]; HIV-1 PR products; made in house; host or cells: total chemical synthesis: solid-phase segments 1-51 and 53-99 joined by chemical ligation
Procedure: as §1

[3] = control of morning sickness during pregnancy; cited from earlier work

| Molecule | inhibition of D-[Aba^67.95 (CO-S)^51–52]2 HIV-1 PR [1] | inhibition of L-[Aba^67.95 (CO-S)^51–52]2 HIV-1 PR [2] | sedative effect [3] |
| --- | --- | --- | --- |
| Ac-Thr-Ile-Nle-psi[CH2NH]-Nle-Gln-Arg.amide [L-MVT101] | no effect | inhibits | – |
| O=C1CC[C@@H](N2C(=O)c3ccccc3C2=O)C(=O)N1 (single isomer, unassigned) [D-enantiomer of thalidomide] | – | – | safe and effective sedative |
| Ac-Thr-Ile-Nle-psi[CH2NH]-Nle-Gln-Arg.amide [D-MVT101] | inhibits | no effect | – |

— patent US7135279B2 (priority 1992, dated 2006)
